# Measurements published in patent US20220160804A1, “USE OF LAURUS NOBILIS EXTRACT FRACTIONS TO PROTECT AGAINST AIR POLLUTION RELATED DISEASES” (DSM IP Assets B.V., priority 2019, published 2022).
# What was measured:
# IL-8 = IL-8 secretion of A549 cells treated with Diesel Particulate Matter; type: cell-based, human; details: Table 5, LPS 10 μg/mL
# From the text: (§1) The human bronchial epithelial cell line BEAS-2B was from ATCC (American Type Culture Collection, Manassas, Va.) and cultured in Bronchial Epithelial cell Growth Medium (BEGM, Lonza, Wakersville, Md.) in CellBIND® surface plastic flasks (Corning Inc., Corning, N.Y.). The adenocarcinomic human alveolar basal epithelial A549 cell line was obtained from ATCC and cultured in Kaighn's Modification of Ham's F-12 Medium (F-12K medium) (Life Technologies, USA), supplemented with 10% FBS (Sigma, Saint-Louis, Mo.). These cells were cultured at 37° C. in a humidified atmosphere containing 5% CO2.
# (§2) BEAS-2B cells were seeded in 12-well CellBIND® surface culture plates (Corning Inc.) at 3 to 4×10^5 cells per well. A549 cells were seeded in 12-well plates at 2×10^5 cells per well. […]
# (§3) After 24 h, cells were treated with the diluted Diesel Particulate Matter at 100 μg/ml and in the presence of different concentrations of Laurus Extracts, other plant extracts, fractions and compounds as indicated. […] The concentrations of IL-6 and IL-8 in the supernatants were determined by Luminex kits (BIO-RAD Laboratories, Hercules, Calif.) and used in the LiquiChip Workstation IS 200 (Qiagen, Hilden, Germany). The data were evaluated with the LiquiChip Analyser software (Qiagen).
# (§4) Mean values, standard deviation and p-values with Student's t-test were calculated with Excel. […]
# IL-6 [1] = experiment: IL-6 secretion of A549 cells treated with Diesel Particulate Matter; type: cell-based, human; details: Table 4, LPS 10 μg/mL
# From the text: as §1, §2, §3, §4
# IL-6 [2] = experiment: IL-6 secretion of BEAS-2B cells treated with Diesel Particulate Matter; type: cell-based, human; details: for IL-6 % of PM + DMSO: PM + DMSO = 100
# From the text: as §1
# BEAS-2B cells were seeded in 12-well CellBIND® surface culture plates (Corning Inc.) at 3 to 4×10^5 cells per well. A549 cells were seeded in 12-well plates at 2×10^5 cells per well.
# Diesel Particulate Matter (Standard Reference Material SRM 1650b, National Institute of Standards & Technology, NIST, Gaithersburg, Md.) at 80 mg/ml DMSO (100%) were sonicated for 5 min and thereafter diluted 400 fold in medium. This dilution was twofold further diluted for the assay.
# After 24 h, cells were treated with the diluted Diesel Particulate Matter at 100 μg/ml and in the presence of different concentrations of Laurus Extracts, other plant extracts, fractions and compounds as indicated. The final DSMO concentrations were 0.175%. Untreated cells or cells treated with 0.175% DMSO were used as controls. After 24 h, cell supernatants were collected. The concentrations of IL-6 and IL-8 in the supernatants were determined by Luminex kits (BIO-RAD Laboratories, Hercules, Calif.) and used in the LiquiChip Workstation IS 200 (Qiagen, Hilden, Germany). The data were evaluated with the LiquiChip Analyser software (Qiagen).
# Mean values, standard deviation and p-values with Student's t-test were calculated with Excel. P-values […] 0.05 were considered as indication for significance.
# Nrf2 = experiment: Luciferase reporter assay using H4IIE-ARE8L cells (Nrf2 activation); type: cell-based, rat; details: R-sulforaphane Conc. Final 4.55 μg/ml as printed, concentrations of fractions not given, DMSO 0.45 % control 2921
# Protocol: PloS One. 2012; 7 (5): e36774). […] The media was exchanged every two to three-days. The DMEM assay medium used charcoal treated FBS ([…] transactivation assay was performed in 96 well plates. The plates were seeded with approximately 40,000 cells per well in 100 μ[…] and incubated over night at 37° C. Then the test compounds were diluted in […] and given to the cells as described below. The cells were incubated for at least further 16 h at 37° C. and 5% CO2. Cells were equilibrated to room temperature. Lysis of the cells was done by adding 100 μL lysis solution, Steady-Glo® luciferase buffer according to the manufacturer (Promega) containing 0.5 mM DTT per well and incubated for 10 min at room temperature with gentle shaking. The luminescence was measured within 2 hours after incubation on a luminometer (Mithras, Berthold Technologies). […] We used a rat hepatoma cell line that was stably transfected with a construct that contains eight tandem ARE elements in front of a luciferase reporter gene ([…], et al 2012. PloS One. 2012; 7(5):e36774). All extracts, fractions and pure compounds were tested for concentrations that induce toxicity. Non-toxic concentrations were then selected for treating cells as describes in the methods section.
Molecule,IL-8 (IL-8; 24 h),IL-8 % of PM + DMSO (IL-8; PM + DMSO = 100),IL-6 (IL-6 [1]; 24 h),IL-6 % of PM + DMSO (IL-6 [1]; PM + DMSO = 100),IL-6 induction relative to PM and DMSO (IL-6 [2]; LPS 10 μg/mL versus PM + DMSO (Table 2)),"IL-6 (IL-6 [2]; Table 2, LPS 10 μg/mL, 24 h)","IL-6 % of PM + DMSO (IL-6 [2]; Table 2, LPS 10 μg/mL, 24 h)","IL-6 (IL-6 [2]; Table 3, LPS 10 μg/mL, 24 h)","IL-6 % of PM + DMSO (IL-6 [2]; Table 3, LPS 10 μg/mL)","Nrf-2 activity, Average (Nrf2)"
Lipopolysaccharide [LPS],406 pg/mL,140%,19.6 pg/mL,45%,over 40 times,3760 pg/mL,4482%,6477 pg/mL,10612%,
"C[S+]([O-])CCCCN=C=S (stereo not shown) [R-Sulforaphane, R-sulforaphane]",,,,,,,,,,13233 relative units of luciferase fluorescence
